From US20220062240A1, “METHODS OF TREATING CANCER USING A CLK INHIBITOR” (BioSplice Therapeutics, Inc., priority 2018, published 2022)
pEC50: −log10 of the molar value. Read-outs that look alike come from different tables or passages of the source.

Legend:
CLK3 = CLK3 (Homo sapiens, UniProt P49761); assay: CLK3 kinase activity assay (Z-lyte, Ser/Thr 18 peptide)
[1] = system: lung cancer (4 cell lines); assay: CellTiter-Glo Viability Assay, lung cancer; assay type: cell-based; settings: Homo sapiens, inhibition of cancer cell proliferation
T47D = assay: CellTiter-Glo Viability Assay, breast cancer; assay type: cell-based; settings: Homo sapiens, 96 h, breast cancer, four days, read-out: EC50
BT-549 = assay: CellTiter-Glo Viability Assay, breast cancer; assay type: cell-based; settings: Homo sapiens, 96 h; BT-549, breast cancer, four days; read-out: EC50
CAMA1 = assay: CellTiter-Glo Viability Assay, breast cancer; assay type: cell-based; settings: Homo sapiens, CAMA-1, 96 h; CAMA1, breast cancer, four days; read-out: EC50
MDA-MB-231-Luc = assay: CellTiter-Glo Viability Assay, breast cancer; assay type: cell-based; settings: Homo sapiens, 96 h; MDA-MB-231-Luc, breast cancer, four days; read-out: EC50
HCC1599 = assay: CellTiter-Glo Viability Assay, breast cancer; assay type: cell-based; settings: Homo sapiens, 96 h; HCC1599, breast cancer, four days; read-out: EC50
DU4475 = assay: CellTiter-Glo Viability Assay, breast cancer; assay type: cell-based; settings: Homo sapiens, DU-4475, 96 h; DU4475, breast cancer, four days; read-out: EC50
ZR-75-1 = assay: CellTiter-Glo Viability Assay, breast cancer; assay type: cell-based; settings: Homo sapiens, 96 h; ZR-75-1, breast cancer, four days; read-out: EC50
MCF7 = assay: CellTiter-Glo Viability Assay, breast cancer; assay type: cell-based; settings: Homo sapiens, 96 h; MCF7, breast cancer, four days; read-out: EC50
[2] = system: ovarian cancer (4 cell lines); assay: CellTiter-Glo Viability Assay, ovarian cancer; assay type: cell-based; settings: Homo sapiens, inhibition of cancer cell proliferation
all 50 cell lines = assay: CellTiter-Glo Viability Assay, average across all cell lines; assay type: cell-based; settings: Homo sapiens; across all 50 cell lines; read-out: average EC50 for inhibition of cancer cell proliferation
In short: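 Cancer cell lines of several tumour types plated at 300-3,000 cells/well and exposed to compound in duplicate for four days at 37° C, 5% CO2, with DMSO-treated controls. Viability read by CellTiter-Glo luminescence (ATP content); EC50 derived from dose-response curves.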

[3] = system: pancreatic cancer (8 cell lines); assay: CellTiter-Glo Viability Assay, pancreatic cancer; assay type: cell-based; settings: Homo sapiens, inhibition of cancer cell proliferation
[4] = system: liver cancer (3 cell lines); assay: CellTiter-Glo Viability Assay, liver cancer; assay type: cell-based; settings: Homo sapiens, inhibition of cancer cell proliferation
CLK2 = molecular target: T1, CLK2 (Homo sapiens, UniProt P49760); assay: CLK2 kinase activity assay (Z-lyte, Ser/Thr 6 peptide); assay type: biochemical; settings: recombinant CLK2 kinase, ATP 60 μM; read-out: EC50
T1 construct: purchased Thermo Fisher (Life Technologies), Z'-LYTE Kinase Assay Kits
T1 sequence (P49760 whole entry): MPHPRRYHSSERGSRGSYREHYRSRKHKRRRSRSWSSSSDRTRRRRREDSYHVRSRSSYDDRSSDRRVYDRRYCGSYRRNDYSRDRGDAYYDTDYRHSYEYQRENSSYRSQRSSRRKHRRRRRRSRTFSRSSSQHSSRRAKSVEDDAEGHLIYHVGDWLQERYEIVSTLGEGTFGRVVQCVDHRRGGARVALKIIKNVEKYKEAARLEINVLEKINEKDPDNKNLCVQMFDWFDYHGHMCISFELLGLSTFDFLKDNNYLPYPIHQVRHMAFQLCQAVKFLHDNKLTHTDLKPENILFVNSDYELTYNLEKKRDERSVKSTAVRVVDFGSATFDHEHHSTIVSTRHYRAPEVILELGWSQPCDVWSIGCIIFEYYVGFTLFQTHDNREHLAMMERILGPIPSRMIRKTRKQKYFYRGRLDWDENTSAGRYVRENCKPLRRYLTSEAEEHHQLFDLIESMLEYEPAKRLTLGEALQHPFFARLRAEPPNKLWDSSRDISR
Procedure: All reactions were performed in duplicate.

[5] = system: haematopoietic & lymphoid tumors (13 cell lines); assay: CellTiter-Glo Viability Assay, haematopoietic & lymphoid tumors; assay type: cell-based; settings: Homo sapiens, inhibition of cancer cell proliferation
[6] = system: prostate cancer (5 cell lines); assay: CellTiter-Glo Viability Assay, prostate cancer; assay type: cell-based; settings: Homo sapiens
[7] = system: colorectal cancer (6 cell lines); assay: CellTiter-Glo Viability Assay, colorectal cancer; assay type: cell-based; settings: Homo sapiens, inhibition of cancer cell proliferation

CLK3, sequence (P49761 whole entry): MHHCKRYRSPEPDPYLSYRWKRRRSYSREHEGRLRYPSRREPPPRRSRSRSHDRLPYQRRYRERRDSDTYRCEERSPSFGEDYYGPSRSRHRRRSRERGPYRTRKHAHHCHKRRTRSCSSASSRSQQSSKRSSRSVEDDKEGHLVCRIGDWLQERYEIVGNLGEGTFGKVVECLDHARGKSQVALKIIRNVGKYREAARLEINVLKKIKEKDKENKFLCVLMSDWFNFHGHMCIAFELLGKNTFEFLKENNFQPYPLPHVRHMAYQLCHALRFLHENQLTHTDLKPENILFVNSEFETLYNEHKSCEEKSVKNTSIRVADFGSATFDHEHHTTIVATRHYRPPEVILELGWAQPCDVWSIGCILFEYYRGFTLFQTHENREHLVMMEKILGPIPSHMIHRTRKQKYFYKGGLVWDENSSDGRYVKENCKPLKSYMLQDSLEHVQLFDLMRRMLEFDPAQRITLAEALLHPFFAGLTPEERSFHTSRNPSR

## CC(C)Nc1cncc(-c2ccc3cnc(NC(=O)c4cn(C5CCN(CCF)CC5)nn4)cc3c2)n1 [Compound 85]
CLK3
  pEC50: 7.92
[1]; A-427, A427 cell line, read-out: Lung cancer, EC50 (μM) A427
  EC50: 0.452 µM
[1]; HCC78, HCC-78 cell line, read-out: Lung cancer, EC50 (μM) HCC-78
  EC50: 0.64 µM
[1]; NCI-H460 cell line, read-out: Lung cancer, EC50 (μM) NCI-H460
  EC50: 0.564 µM
[1]; NCI-H522 cell line, read-out: Lung cancer, EC50 (μM) NCI-H522
  EC50: 0.412 µM
T47D
  pEC50: 6.20
BT-549
  pEC50: 6.68
CAMA1
  pEC50: 6.40
MDA-MB-231-Luc
  pEC50: < 5.00
HCC1599
  pEC50: 7.03
DU4475
  pEC50: 6.38
ZR-75-1
  pEC50: 6.30
MCF7
  pEC50: 6.17
[2]; PA-1, PA1 cell line, read-out: Ovarian cancer, EC50 (μM) PA1
  EC50: > 10 µM
[2]; TOV112D, TOV-112D cell line, read-out: Ovarian cancer, EC50 (μM) TOV-112D
  EC50: 0.143 µM
[2]; OV-90 cell line, read-out: Ovarian cancer, EC50 (μM) OV-90
  EC50: 0.562 µM
[2]; OVCAR-3 cell line, read-out: Ovarian cancer, EC50 (μM) OVCAR-3
  EC50: 0.171 µM
All 50 cell lines
  pEC50: 6.06
[3]; BXPC-3, BxPC3 cell line, read-out: Pancreatic cancer, EC50 BxPC3
  pEC50: 6.28
[3]; CAPAN-1, Capan1 cell line, read-out: Pancreatic cancer, EC50 Capan1
  pEC50: 6.65
[3]; Capan-2, Capan2 cell line, read-out: Pancreatic cancer, EC50 Capan2
  pEC50: 6.53
[3]; MIA PaCa-2 cell line, read-out: Pancreatic cancer, EC50 MIA PaCa-2
  pEC50: 6.83
[3]; PANC 05.04 cell line, read-out: Pancreatic cancer, EC50 PANC 05.04
  pEC50: 6.38
[3]; PANC-1 cell line, read-out: Pancreatic cancer, EC50 PANC-1
  pEC50: 6.31
[3]; UPAFII cell line, read-out: Pancreatic cancer, EC50 UPAFII
  pEC50: 6.87
[4]; SNU-398, SNU398 cell line, read-out: Liver cancer, EC50 SNU398
  pEC50: 7.02
[4]; HEPG2 cell line, read-out: Liver cancer, EC50 HEPG2
  pEC50: < 5.00
[4]; PLC/PRF/5 cell line, read-out: Liver cancer, EC50 PLC/PRF/5
  pEC50: 6.46
CLK2
  pEC50: 8.40
[5]; DND41, DND-41 cell line, read-out: Haematopoietic & Lymphoid tumors, EC50 (μM) DND-41
  EC50: 0.207 µM
[5]; MV4-11, MV-4-11 cell line, read-out: Haematopoietic & Lymphoid tumors, EC50 (μM) MV-4-11
  EC50: 0.067 µM
[5]; Rec1, REC-1 cell line, read-out: Haematopoietic & Lymphoid tumors, EC50 (μM) REC-1
  EC50: 0.082 µM
[5]; SU-DHL-4, SUDHL4 cell line, read-out: Haematopoietic & Lymphoid tumors, EC50 (μM) SUDHL4
  EC50: 0.491 µM
[5]; HL-60 cell line, read-out: Haematopoietic & Lymphoid tumors, EC50 (μM) HL-60
  EC50: 0.252 µM
[5]; JM1 cell line, read-out: Haematopoietic & Lymphoid tumors, EC50 (μM) JM1
  EC50: 0.175 µM
[5]; JURKAT, Clone E6-1 cell line, read-out: Haematopoietic & Lymphoid tumors, EC50 (μM) JURKAT, Clone E6-1
  EC50: 0.466 µM
[5]; JeKo-1 cell line, read-out: Haematopoietic & Lymphoid tumors, EC50 (μM) JeKo-1
  EC50: 0.109 µM
[5]; KASUMI-1 cell line, read-out: Haematopoietic & Lymphoid tumors, EC50 (μM) KASUMI-1
  EC50: 0.209 µM
[5]; Loucy cell line, read-out: Haematopoietic & Lymphoid tumors, EC50 (μM) Loucy
  EC50: 0.241 µM
[5]; MOLT-4 cell line, read-out: Haematopoietic & Lymphoid tumors, EC50 (μM) MOLT-4
  EC50: 0.13 µM
[5]; TF-1 cell line, read-out: Haematopoietic & Lymphoid tumors, EC50 (μM) TF-1
  EC50: 0.226 µM
[5]; TOLEDO cell line, read-out: Haematopoietic & Lymphoid tumors, EC50 (μM) TOLEDO
  EC50: 0.122 µM
[6]; DU-145, read-out: Prostate cancer EC50 Du-145
  pEC50: 6.62
[6]; PC-3, PC3 cell line, inhibition of cancer cell proliferation, read-out: Prostate cancer EC50 PC3
  pEC50: 6.60
[6]; 22Rv1 cell line, inhibition of cancer cell proliferation, read-out: Prostate cancer EC50 22Rv1
  pEC50: 6.38
[6]; LNCap clone FGC cell line, inhibition of cancer cell proliferation, read-out: Prostate cancer EC50 LNCap clone FGC
  pEC50: 6.29
[6]; VCaP (Sigma) cell line, inhibition of cancer cell proliferation, read-out: Prostate cancer EC50 VCaP (Sigma)
  pEC50: 6.30
[7]; HCT-116, HCT116 cell line, read-out: Colorectal cancer, EC50 (μM) HCT116
  EC50: 0.077 µM
[7]; HT-29, HT29 cell line, read-out: Colorectal cancer, EC50 (μM) HT29
  EC50: 0.198 µM
[7]; SW-620, SW620 cell line, read-out: Colorectal cancer, EC50 (μM) SW620
  EC50: 0.067 µM
[7]; DLD-1 cell line, read-out: Colorectal cancer, EC50 (μM) DLD-1
  EC50: 0.173 µM
[7]; SW48 cell line, read-out: Colorectal cancer, EC50 (μM) SW48
  EC50: 0.059 µM
[7]; SW480 cell line, read-out: Colorectal cancer, EC50 (μM) SW480
  EC50: 0.136 µM
